Results on one compound are retold here after patent publication US8846951B2 (AbbVie Inc., priority 2009, dated 2014).

Entries after “also recorded” stand apart in the source; their conditions may differ.

The target in one series is T1, 5HT2C receptors (Homo sapiens, UniProt P28335).
T1 sequence (P28335 33-458): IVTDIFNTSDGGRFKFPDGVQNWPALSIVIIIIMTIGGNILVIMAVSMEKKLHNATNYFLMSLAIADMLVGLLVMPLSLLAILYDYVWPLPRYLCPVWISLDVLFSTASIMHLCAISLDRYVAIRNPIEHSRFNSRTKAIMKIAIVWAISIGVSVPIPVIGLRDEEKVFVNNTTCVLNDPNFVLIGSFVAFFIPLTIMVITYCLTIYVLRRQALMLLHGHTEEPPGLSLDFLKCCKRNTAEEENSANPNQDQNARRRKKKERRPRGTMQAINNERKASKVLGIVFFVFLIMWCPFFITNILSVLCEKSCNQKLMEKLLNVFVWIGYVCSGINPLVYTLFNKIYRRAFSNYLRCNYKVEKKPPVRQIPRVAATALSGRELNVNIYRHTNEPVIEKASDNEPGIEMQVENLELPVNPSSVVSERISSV
As to the kind of experiment: Human 5-HT2C functional high throughput screening assay in CHO-K1 cells (calcium flux). The format is cell-based. Also noted: expressed in transfected cells; host or cells: CHO-K1 cells. In outline: (§1)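 Agonism was measured as FLIPR fluorescence increase (480/530 nm, 25° C) with Ca4 dye and 2.5 mM probenecid, in serum-starved CHO-K1 lines overexpressing human 5-HT2C or 5-HT2B. Six-point 1:10 dilutions from 10 μM (0.2% DMSO final) were fitted by 4-parameter logistics. Responses were normalised to serotonin to give EC50 and % Emax.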
On the technique in general: Calcium flux is commonly read through the fluorescence of an indicator in the cells.

Another series addresses T2, 5HT2B receptors (Homo sapiens, UniProt P41595).
T2 construct: expressed in transfected cells; host or cells: CHO-K1 cells
Kind of series: Human 5-HT2B functional high throughput screening assay in CHO-K1 cells (calcium flux). In kind it is cell-based. In a few lines: as §1

The test system of series [1] is conditioned avoidance response (CAR) behavior. As to the kind of experiment: Conditioned avoidance responding in rats. As to conditions: male Wistar rats; call rule not given here. In kind it is in vivo, rat. As to the method: The fact that antipsychotics have the unique ability to selectively suppress CAR behavior, made the CAR test a useful tool for the screening of new, potentially antipsychotic compounds. […] Animals Male Wistar rats (9-11 weeks old, Charles River, Germany) were pair-housed and allowed ad-libitum access to food and water. A 12-hour light/dark cycle was imposed with lights-on period between 0530 and 1730 hours. All testing occurred between 700 and 1300 hours. All procedures were approved by Abbott Institutional Animal Care and Use Committee (USA) or Animal Welfare Officer (Germany) and were conducted in accordance with the National Institutes of Health Guide for Care and Use of Laboratory Animals guidelines and applicable national laws in the facilities accredited by the Association for the Assessment and Accreditation of Laboratory Animal Care. Methods Wistar rats are exposed to a conditioned stimulus CS (a 2.9-kHz tone of 10 second duration), which is a signal for the animal that it must move into the other chamber in order to avoid an immediately ensuing footshock US (0.5 mA, 10 second, tone continues during shock presentation). Once the shock has begun, the animal can still escape it by moving to the other chamber. Each session is limited to a maximum of 40 trials (intertrial interval 10-90 seconds). The animals generally learn quickly to change chambers upon the conditioned stimulus and thus avoid further shocks. Scored are: • Avoided responses=crossings into other compartment within 10 seconds of tone presentation; • Escaped responses=crossings between 10-20 seconds of tone presentation; • Failures=crossings after cessation of tone-shock presentation or no crossing. […] At the test sessions (=CS-shock pairings), animals are pre-treated with a test drug or vehicle 30 minutes before commencement of the session.

For series [2], the system named is AMP- or PCP-induced hyperactivity. As to the kind of experiment: Psychostimulant (AMP or PCP)-induced hyperlocomotion in mice. The note with it: test compound ip 30 min before d-amphetamine 2.0 mg/kg sc. In kind it is in vivo, mouse. The text has this:
(x) Assessment of Effects on Psychostimulant-Induced Hyperlocomotion in Mice
In both humans and experimental animals amphetamine (AMP) profoundly affects motor activity, sensorimotor function, sleep, attention, aggressive and sexual behaviors, learning and memory, operant behaviors, appetite and food intake. In addition, amphetamine induces psychotic reactions in normal individuals and exacerbates symptoms of schizophrenia in patients. In experimental animals several distinct behaviors are considered to be correlates of amphetamine psychosis. For example, amphetamine-induced hyperactivity in rodents is believed to model the psychotic symptoms of schizophrenia. Reversal of these behaviors is used to predict potential antipsychotic activity of drugs in pre-clinical studies.
In humans, phencyclidine (PCP) is known to produce a syndrome of behavioral effects which have many characteristics in common with schizophrenia. Therefore, antagonism of PCP effects might be evidence for antipsychotic efficacy of a compound.
Male NMRI mice (5-week old, Janvier, France) or C57BL/6J mice (6-week old, Janvier, France) were group housed and allowed ad-libitum access to food and water. A 12 hour light/dark cycle was imposed with lights-on period between 0530 and 1730 hours. All testing occurred between 700 and 1300 hours. All procedures were approved by Abbott Institutional Animal Care and Use Committee (USA) or Animal Welfare Officer (Germany) and were conducted in accordance with the National Institutes of Health Guide for Care and Use of Laboratory Animals guidelines and applicable national laws in the facilities accredited by the Association for the Assessment and Accreditation of Laboratory Animal Care.
On the day of experiment, animals were brought from the animal facility into the experimental room and were allowed to acclimatize for at least 30 minutes. Animals were then placed in the test cages for a habituation period of 60 minutes. The animals were then injected ip with the test compound and returned to the test cage. 30 Minutes later the mice were injected with d-amphetamine (2.0 mg/kg, AMP, Sigma, #A5880, sc) or phencyclidine (2.0 mg/kg, PCP, Sigma, #P3029, sc) Sigma, and returned to the test cages for 90 minutes. Each treatment group consisted of 8-10 animals. The data was acquired by Cage rack Photobeam system (SDI, San Diego Instruments, CA). The analyzed data were: fine movements, ambulations and total movements (fine+ambulations). Data was subjected to one- or two-way distribution-free ANOVA followed by Dunnett's and Tukey's post hoc tests.

T2 sequence (P41595 whole entry): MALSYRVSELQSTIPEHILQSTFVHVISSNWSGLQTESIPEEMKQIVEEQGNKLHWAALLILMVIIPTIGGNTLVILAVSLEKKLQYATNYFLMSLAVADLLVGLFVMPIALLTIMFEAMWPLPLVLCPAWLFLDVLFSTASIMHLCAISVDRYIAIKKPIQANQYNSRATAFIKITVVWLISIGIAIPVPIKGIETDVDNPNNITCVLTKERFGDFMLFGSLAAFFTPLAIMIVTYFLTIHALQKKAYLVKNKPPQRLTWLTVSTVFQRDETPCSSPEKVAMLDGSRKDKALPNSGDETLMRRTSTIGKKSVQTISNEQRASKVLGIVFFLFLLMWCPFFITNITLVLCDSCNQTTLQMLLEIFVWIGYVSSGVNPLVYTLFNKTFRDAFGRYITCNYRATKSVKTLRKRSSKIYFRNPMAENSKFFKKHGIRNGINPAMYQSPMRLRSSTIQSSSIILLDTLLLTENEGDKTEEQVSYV

A word on the EC50: it is the midpoint of the concentration-response curve. As a reminder, the Emax is the maximal effect, on the per cent scale that the assay sets. `COc1ccc(-c2ccc3c(c2)C(=O)NC[C@H]2CN(C)C[C@H]32)cc1` [Example 158, (3aS,10bS)-8-(4-Methoxyphenyl)-2-methyl-1,2,3,3a,4,5-hexahydrobenzo[e]pyrrolo[3,4-c]azepin-6(10bH)-one]: the EC50 on 5HT2C receptors (5-HT2C agonist activity, CHO-K1 cells, calcium flux, read-out: EC50) is 0.6 nM; at 5HT2B receptors (5-HT2B agonist activity, CHO-K1 cells, calcium flux, read-out: EC50), greater than 10 µM. The Emax on 5HT2C receptors (CHO-K1, 5-HT2C, maximum functional response as percentage relative to the effect of serotonin, read-out: Emax) is greater than 120%; on 5HT2B receptors (5-HT2B, maximum functional response as percentage relative to the effect of serotonin) it was “inactive”. For the same compound, the “conditioned avoidance behavior (avoided responses)” value in series [1] (acute, 30 minutes before session) was “significantly suppressed conditioned avoidance behavior”. The number of failures result in series [1] (indicator of sedation or extrapyramidal side effects) is given as “without affecting the number of failures”. Moreover, the AMP-induced hyperactivity entry in series [2] was “attenuated AMP-induced hyperactivity in mice significantly and in a dose dependent manner; also recorded: attenuating the affect of d-amphetamine (AMP)”.
